Measurements taken from patent US8183234B2, “Tricyclic guanidine derivatives as sodium-proton exchange inhibitors” (Piramal Life Sciences Limited, priority 2004, dated 2012).
Structures can show the parent of a compound that is named as a salt.

`CC(C)c1cccc2c1Oc1ccc(C(=O)NC(=N)N)cc1S(=O)(=O)C2.CS(=O)(=O)O` [Example 8, N-(4-Isopropyl-10,10-dioxo-10,11-dihydro-5-oxa-10lambda*6*-thia-dibenzo[a,d]cycloheptene-8-carbonyl)-guanidine, methanesulfonic acid salt] gave a melting point of 220 to 222 °C.

Work on `COCC(=O)N(CCN1CCOCC1)c1cc(Cl)c2c(c1)CS(=O)(=O)c1cc(C(=O)NC(=N)N)cc(C)c1O2.CS(=O)(=O)O.CS(=O)(=O)O` [Example 69, N-(4-Chloro-8-guanidinocarbonyl-6-methyl-10,10-dioxo-10,11-dihydro-5-oxa-10lambda*6*-thia-dibenzo[a,d]cyclohepten-2-yl)-2-methoxy-N-(2-morpholin-4-yl-ethyl)-acetamide dimesylate] yielded a melting point of 168 to 169 °C.

For `CCN(CCN1CCOCC1)c1cc(Cl)c2c(c1)CS(=O)(=O)c1cc(C(=O)NC(=N)N)cc(C)c1O2.CS(=O)(=O)O.CS(=O)(=O)O` [Example 67, N-{4-Chloro-2-[ethyl-(2-morpholin-4-yl-ethyl)-amino]-6-methyl-10,10-dioxo-10,11-dihydro-5-oxa-10lambda*6*-thia-dibenzo[a,d]cycloheptene-8-carbonyl}-guanidine dimesylate], the melting point was 248 to 250 °C.

In the case of `CS(=O)(=O)O.Cc1cc(C(=O)NC(=N)N)cc2c1Oc1c(Cl)cc(S(=O)(=O)Nc3nnc(C4CC4)s3)cc1CS2(=O)=O` [Example 51, 4-Chloro-8-guanidinocarbonyl-6-methyl-10,10-dioxo-10,11-dihydro-5-oxa-10lambda*6*-thia-dibenzo[a,d]cycloheptene-2-sulfonic acid (5-cyclopropyl-[1,3,4]thiadiazol-2-yl)-amide methane sulfonic acid salt], the melting point is reported as 221 to 222 °C.

`CS(=O)(=O)O.Cc1cc(C(=O)NC(=N)N)cc2c1Oc1c(Cl)cc(S(=O)(=O)N3CCOCC3)cc1CS2(=O)=O` [Example 55, N-[4-chloro-6-methyl-2-(morpholine-4-sulfonyl)-10,10-dioxo-10,11-dihydro-5-oxa-10 lambda*6*-thia-dibenzo[a,d]cycloheptene-8-carbonyl]-guanidine methane sulfonic acid salt] gave a melting point of 292 to 293 °C.

`CS(=O)(=O)O.CS(=O)(=O)O.CS(=O)(=O)O.Cc1cc(C(=O)NC(=N)N)cc2c1Oc1c(Cl)cc(NCCN3CCN(C)CC3)cc1CS2(=O)=O` [Example 62, N-{4-Chloro-6-methyl-2-[2-(4-methylpiperazin-1-yl)-ethylamino]-10,10-dioxo-10,11-dihydro-5-oxa-10lambda*6*-thia-dibenzo[a,d]cycloheptene-8-carbonyl}-guanidine trimesylate] showed a melting point of 184 to 186 °C.

Compound `CS(=O)(=O)O.CS(=O)(=O)O.Cc1cc(C(=O)NC(=N)N)cc2c1Oc1c(Cl)cc(N(CCN(C)C)C(=O)C(C)(C)C)cc1CS2(=O)=O` [Example 101, N-(4-Chloro-8-guanidinocarbonyl-6-methyl-10,10-dioxo-10,11-dihydro-5-oxa-10lambda*6*-thia-dibenzo[a,d]cyclohepten-2-yl)-N-(2-dimethylamino-ethyl)-2,2-dimethyl-propionamide dimesylate] has a melting point of 171 to 173 °C.

With `CS(=O)(=O)O.CS(=O)(=O)O.CS(=O)(=O)O.Cc1cc(C(=O)NC(=N)N)cc2c1Oc1c(Cl)cc(NCCNCCc3ccccn3)cc1CS2(=O)=O` [Example 83, N-{4-Chloro-6-methyl-10,10-dioxo-2-[2-(2-pyridin-2-yl-ethylamino)-ethylamino]-10,11-dihydro-5-oxa-10lambda*6*-thia-dibenzo[a,d]cycloheptene-8-carbonyl}-guanidine trimesylate] the melting point was 196 to 198 °C.

In the case of `CS(=O)(=O)O.CS(=O)(=O)O.Cc1cc(C(=O)NC(=N)N)cc2c1Oc1c(Cl)cc(NC(=O)CN3CCCC3)cc1CS2(=O)=O` [Example 147, N-(4-Chloro-8-guanidinocarbonyl-6-methyl-10,10-dioxo-10,11-dihydro-5-oxa-10lambda*6*-thia-dibenzo[a,d]-cyclohepten-2-yl)-2-pyrrolidine-1-yl-acetamide dimesylate], the melting point is reported as 190 to 192 °C.

`CCCCCN1CCN(c2cc(Cl)c3c(c2)CS(=O)(=O)c2cc(C(=O)NC(=N)N)cc(C)c2O3)CC1.CS(=O)(=O)O.CS(=O)(=O)O` [Example 106, N-[4-Chloro-6-methyl-10,10-dioxo-2-(4-pentyl-piperazin-1-yl)-10,11-dihydro-5-oxa-10-lambda*6*-thia-dibenzo[a,d]cycloheptene-8-carbonyl]-guanidine dimesylate] showed a melting point of 250 to 251 °C.

In the case of `CS(=O)(=O)O.CS(=O)(=O)O.Cc1cc(C(=O)NC(=N)N)cc2c1Oc1c(Cl)cc(N3CCN(C4CCC4)CC3)cc1CS2(=O)=O` [Example 129, N-[4-Chloro-2-(4-cyclobutyl-piperazin-1-yl)-6-methyl-10,10-dioxo-10,11-dihydro-5-oxa-10lambda*6*-thia-dibenzo[a,d]cycloheptene-8-carbonyl]-guanidine dimesylate], the melting point is reported as 275 to 277 °C.

`CS(=O)(=O)O.CS(=O)(=O)O.CS(=O)(=O)O.Cc1cc(C(=O)NC(=N)N)cc2c1Oc1c(Cl)cc(N3CCN(CCN(C)C)CC3)cc1CS2(=O)=O` [Example 119, N-{4-Chloro-2-[4-(2-dimethylamino-ethyl)-piperazin-1-yl]-6-methyl-10,10-dioxo-10,11-dihydro-5-oxa-10lambda*6*-thia-dibenzo[a,d]cycloheptene-8-carbonyl}-guanidine trimesylate] gave a melting point of 243 to 245 °C.

Compound `CS(=O)(=O)O.CS(=O)(=O)O.Cc1cc(C(=O)NC(=N)N)cc2c1Oc1c(Cl)cc(N3CCN(CC4CC4)CC3)cc1CS2(=O)=O` [Example 123, N-[4-Chloro-2-(4-cyclopropylmethyl-piperazin-1-yl)-6-methyl-10,10-dioxo-10,11-dihydro-5-oxa-10lambda*6*-thia-dibenzo[a,d]cycloheptene-8-carbonyl]-guanidine dimesylate] has a melting point of 282 to 287 °C.

Compound `Cc1cc(C(=O)N=C(N)N)cc2c1Oc1c(Cl)cc(N3CCN(C4CC4)CC3=O)cc1CS2(=O)=O` (as salt: mesylate) [Example 58, N-[4-Chloro-2-(4-cyclopropyl-2-oxo-piperazin-1-yl)-6-methyl-10,10-dioxo-10,11-dihydro-5-oxa-10lambda*6*-thia-dibenzo[a,d]cycloheptene-8-carbonyl]-guanidine dimesylate] has a melting point of 195 to 196 °C.

Compound `NC(N)=NC(=O)c1cc(Cl)c2c(c1)S(=O)(=O)Cc1cccc(Cl)c1O2` (as salt: sulfonic acid salt) [Example 45, 4,6-Dichloro-10,10-dioxo-10,11-dihydro-5-oxa-10lambda*6*-thia-dibenzo[a,d]cycloheptene-8-carbonylguanidine, methane sulfonic acid salt] has a melting point of 270 to 271 °C.

In the case of `CCN(CCN1CCCC1)c1cc(Cl)c2c(c1)CS(=O)(=O)c1cc(C(=O)N=C(N)N)cc(C)c1O2` (as salt: mesylate) [Example 73, N-{4-Chloro-2-[ethyl-(2-pyrrolidin-1-yl-ethyl)-amino]-6-methyl-10,10-dioxo-10,11-dihydro-5-oxa-10lambda*6*-thia-dibenzo[a,d]cycloheptene-8-carbonyl}-guanidine dimesylate], the melting point is reported as 258 to 260 °C.

Compound `CS(=O)(=O)O.CS(=O)(=O)O.CS(=O)(=O)O.Cc1cc(C(=O)NC(=N)N)cc2c1Oc1c(Cl)cc(N3CCN(Cc4cccc(N)c4)CC3)cc1CS2(=O)=O` [Example 127, N-{2-[4-(3-Amino-benzyl)-piperazin-1-yl]-4-chloro-6-methyl-10,10-dioxo-10,11-dihydro-5-oxa-10lambda*6*-thia-dibenzo[a,d]cycloheptene-8-carbonyl}-guanidine trimesylate] has a melting point of 214 to 215 °C.

Compound `CS(=O)(=O)O.CS(=O)(=O)O.Cc1cc(C(=O)NC(=N)N)cc2c1Oc1c(Cl)cc(NCCNCc3cccs3)cc1CS2(=O)=O` [Example 86, N-(4-Chloro-6-methyl-10,10-dioxo-2-{2-[(thiophen-2-ylmethyl)-amino]-ethylamino}-10,11-dihydro-5-oxa-10lambda*6*thia-dibenzo[a,d]cycloheptene-8-carbonyl)-guanidine dimesylate] has a melting point of 243 to 245 °C.

`Cc1cc(C(=O)N=C(N)N)cc2c1Oc1c(Cl)cc(S(=O)(=O)NCc3cccnc3)cc1CS2(=O)=O` (as salt: mesylate) [Example 52, 4-Chloro-8-guanidinocarbonyl-6-methyl-10,10-dioxo-10,11-dihydro-5-oxa-10lambda*6*-thia-dibenzo[a,d]cycloheptene-2-sulfonic acid (pyridin-3-ylmethyl)-amide dimesylate] gave a melting point of 271 to 273 °C.

For `COCC(=O)N(CCN1CCCC1)c1cc(Cl)c2c(c1)CS(=O)(=O)c1cc(C(=O)NC(=N)N)cc(C)c1O2.CS(=O)(=O)O.CS(=O)(=O)O` [Example 77, N-(4-Chloro-8-guanidinocarbonyl-6-methyl-10,10-dioxo-10,11-dihydro-5-oxa-10lambda*6*-thia-dibenzo[a,d]cyclohepten-2-yl)-2-methoxy-N-(2-pyrrolidin-1-yl-ethyl)-acetamide dimesylate], the melting point was 204 to 206 °C.

Work on `CS(=O)(=O)O.CS(=O)(=O)O.Cc1cc(C(=O)NC(=N)N)cc2c1Oc1c(Cl)cc(NCCNCCN3CCOCC3)cc1CS2(=O)=O` [Example 79, N-{4-Chloro-6-methyl-2-[2-(2-morpholin-4-yl-ethylamino)-ethylamino]-10,10-dioxo-10,11-dihydro-5-oxa-10lambda*6*-thia-dibenzo[a,d]cycloheptene-8-carbonyl}-guanidine dimesylate] yielded a melting point of 255 to 256 °C.

Work on `CCN(CCN(CC)c1cc(Cl)c2c(c1)CS(=O)(=O)c1cc(C(=O)NC(=N)N)cc(C)c1O2)Cc1cccs1.CS(=O)(=O)O.CS(=O)(=O)O` [Example 87, N-(4-Chloro-2-{ethyl-[2-(ethyl-thiophen-2-ylmethyl-amino)-ethyl]-amino}-6-methyl-10,10-dioxo-10,11-dihydro-5-oxa-10lambda*6*-thia-dibenzo[a,d]cycloheptene-8-carbonyl)-guanidine dimesylate] yielded a melting point of 156 to 158 °C.

In the case of `Cc1cc2c(cc1C(=O)N=C(N)N)S(=O)(=O)Cc1ccccc1O2` (as salt: sulfonic acid salt) [Example 27, N-(7-Methyl-10,10-dioxo-10,11-dihydro-5-oxa-10lambda*6*-thia-dibenzo[a,d]cycloheptene-8-carbonyl)-guanidine, methane sulfonic acid salt], the melting point is reported as 272 to 274 °C.
